The supplement of paper PMC10331698
± gives the standard deviation of the averaged measurements.

Experiments:
Assay in all cases: level (log10 ratio to DMSO vehicle control); higher = higher biomarker level / cell amount than vehicle control
Details in all cases: in DMSO
[1] = compound: Cc1ccc(S(=O)(=O)OCC(F)(F)C(F)(F)C(F)(F)C(F)(F)C(F)(F)C(F)F)cc1 [1H,1H,7H-Perfluoroheptyl 4-methylbenzenesulfonate]
Description: (§1)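 BioMAP Diversity Plus panel of 12 human primary cell co-culture systems (3C, 4H, LPS, SAg, BT, BF4T, BE3C, CASM3C, HDF3CGF, KF3CT, MyoF, Mphg). Compounds were added 1 h before stimulation and left for 24 h (MyoF 48 h; BT 72 h for soluble read-outs or 6 d for IgG). Biomarkers were read by ELISA, cytotoxicity by SRB, PBMC viability and proliferation by Alamar Blue. Each well value was divided by the mean of 8 DMSO control wells on the same plate and log10 transformed; duplicate blinded samples were tested at 4 concentrations.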

[2] = compound: C=CC(=O)OCC(F)(F)C(F)(F)C(F)(F)C(F)(F)C(F)(F)C(F)(F)C(F)(F)C(F)F [1H,1H,9H-Perfluorononyl acrylate]
Description: as §1

[3] = compound: OCC(F)(F)C(F)(F)C(F)(F)C(F)(F)C(F)(F)C(F)(F)F [6:1 Fluorotelomer alcohol]
Description: as §1

[4] = compound: FC(F)(F)COC(OCC(F)(F)F)OCC(F)(F)F [tris(Trifluoroethoxy)methane]
Description: as §1

[5] = compound: O=C(O)C(F)(F)C(F)(F)C(=O)O [Tetrafluorosuccinic acid]
Description: as §1

[6] = compound: OCC(F)(F)C(F)(F)C(F)(F)C(F)(F)C(F)(F)C(F)(F)C(F)(F)C(F)(F)C(F)(F)C(F)(F)C(F)(F)F [11:1 Fluorotelomer alcohol]
Description: as §1

[7] = compound: O=C(CC(=O)C(F)(F)C(F)(F)C(F)(F)F)c1cccs1 [(Perfluorobutyryl)-2-thenoylmethane]
Description: as §1

| Test System | level (log10) ([1]; 6700 nM) | level (log10) ([1]; 20000 nM) | level (log10) ([1]; 60000 nM) | level (log10) ([2]; 6700 nM) | level (log10) ([2]; 20000 nM) | level (log10) ([2]; 60000 nM) | level (log10) ([3]; 6700 nM) | level (log10) ([3]; 20000 nM) | level (log10) ([3]; 60000 nM) | level (log10) ([4]; 6700 nM) | level (log10) ([4]; 20000 nM) | level (log10) ([4]; 60000 nM) | level (log10) ([5]; 6700 nM) | level (log10) ([5]; 20000 nM) | level (log10) ([5]; 60000 nM) | level (log10) ([6]; 1100 nM) | level (log10) ([6]; 3300 nM) | level (log10) ([6]; 10000 nM) | level (log10) ([7]; 6700 nM) | level (log10) ([7]; 20000 nM) |
| --- | --- | --- | --- | --- | --- | --- | --- | --- | --- | --- | --- | --- | --- | --- | --- | --- | --- | --- | --- | --- |
| BF4T:CCL2/MCP-1 | -0.026 ± 0.018 | -0.124 ± 0.0085 | -0.0585 ± 0.022 | -0.015 ± 0.047 | -0.0035 ± 0.0035 | 0.0155 ± 0.026 | 0.0155 ± 0.015 | -0.014 ± 0.028 | 0.0285 ± 0.015 | 0.0025 ± 0.023 | -0.0115 ± 0.032 | 0.019 ± 0.061 | -0.007 ± 0.0028 | -0.0135 ± 0.0064 | -0.0215 ± 0.016 | 0.018 ± 0.042 | 0.0235 ± 0.021 | 0.031 ± 0.023 | -0.097 ± 0.018 | -0.306 ± 0.093 |
| LPS:CXCL8/IL-8 | 0.0265 ± 0.015 | 0.008 ± 0.014 | 0.0195 ± 0.0021 | -0.001 ± 0.047 | 0.0095 ± 0.023 | -0.023 ± 0.028 | 0.002 ± 0.011 | -0.007 ± 0.018 | 0.0235 ± 0.0021 | -0.0245 ± 0.049 | -0.0285 ± 0.022 | 0.0315 ± 0.08 | -0.0065 ± 0.00071 | -0.003 ± 0.016 | 0.009 ± 0.02 | -0.007 ± 0.011 | -0.013 ± 0.0014 | -0.0305 ± 0.039 | -0.0595 ± 0.032 | -0.033 ± 0.047 |
| 4H:CD87/uPAR | 0.005 ± 0.0071 | 0.011 ± 0.02 | -0.117 ± 0.032 | -0.024 ± 0.035 | -0.043 ± 0.028 | -0.034 ± 0.061 | -0.0195 ± 0.018 | 0.029 ± 0.011 | -0.175 ± 0.36 | 0.0405 ± 0.07 | 0.0305 ± 0.052 | 0.0185 ± 0.064 | -0.0355 ± 0.025 | -0.043 ± 0.035 | -0.036 ± 0.089 | -0.0285 ± 0.037 | -0.0415 ± 0.028 | 0 ± 0.059 | -0.006 ± 0.024 | 0.033 ± 0.0071 |
| BF4T:uPA | -0.0185 ± 0.00071 | -0.01 ± 0.0042 | -0.0165 ± 0.0064 | -0.0055 ± 0.023 | -0.0075 ± 0.018 | -0.002 ± 0.018 | -0.0155 ± 0.0064 | -0.011 ± 0.018 | -0.023 ± 0.024 | 0.001 ± 0.0099 | -0.017 ± 0.011 | -0.0095 ± 0.00071 | -0.004 ± 0.0014 | -0.0185 ± 0.0064 | -0.0095 ± 0.0092 | 0 | -0.005 ± 0.0071 | 0.0015 ± 0.0064 | -0.0235 ± 0.00071 | -0.0535 ± 0.047 |
| 3C:Proliferation | -0.02 ± 0.014 | -0.033 ± 0.014 | -0.12 ± 0.086 | -0.092 ± 0.031 | -0.186 ± 0.021 | -0.415 ± 0.013 | -0.0285 ± 0.0092 | -0.0325 ± 0.0064 | -0.685 ± 0.77 | -0.013 ± 0.061 | -0.001 ± 0.037 | 0.0035 ± 0.03 | -0.0155 ± 0.028 | -0.01 ± 0.0014 | -0.0265 ± 0.021 | -0.189 ± 0.012 | -0.436 ± 0.042 | -0.338 ± 0.051 | -0.276 ± 0.04 | -0.891 ± 0.063 |
| BF4T:CXCL8/IL-8 | -0.0195 ± 0.012 | -0.0615 ± 0.012 | -0.0515 ± 0.011 | -0.0025 ± 0.061 | 0.0315 ± 0.053 | 0.0175 ± 0.012 | 0.008 ± 0.057 | -0.0085 ± 0.039 | 0.013 ± 0.016 | 0 ± 0.037 | 0.007 ± 0.021 | 0.005 ± 0.024 | 0.0235 ± 0.0064 | 0.016 ± 0.038 | 0.029 ± 0.023 | 0.001 ± 0.0057 | 0.0145 ± 0.037 | 0.028 ± 0.042 | 0.0325 ± 0.028 | 0.114 ± 0.0092 |
| LPS:sTNF-alpha | 0.003 ± 0.0057 | -0.006 ± 0.016 | -0.0035 ± 0.0064 | 0.085 ± 0.028 | 0.0465 ± 0.042 | 0.004 ± 0.086 | -0.0625 ± 0.071 | -0.046 ± 0.09 | -0.0115 ± 0.0092 | -0.009 ± 0.017 | 0.001 | 0.0105 ± 0.011 | -0.0025 ± 0.018 | 0.0025 ± 0.011 | 0.009 ± 0.011 | 0.0075 ± 0.012 | -0.0485 ± 0.013 | -0.105 ± 0.08 | 0.0225 ± 0.036 | 0.119 ± 0.029 |
| LPS:CD69 | -0.026 ± 0.048 | -0.0665 ± 0.088 | -0.055 | -0.0345 ± 0.011 | -0.062 ± 0.011 | -0.102 ± 0.023 | -0.017 ± 0.0042 | -0.0135 ± 0.0064 | -0.0085 ± 0.005 | -0.0085 ± 0.015 | 0.012 ± 0.017 | 0.0295 ± 0.018 | -0.0265 ± 0.0035 | -0.0405 ± 0.0092 | -0.029 ± 0.025 | 0.006 ± 0.021 | 0.004 | -0.003 ± 0.031 | -0.132 ± 0.0014 | -0.0555 ± 0.07 |
| LPS:M-CSF | -0.019 ± 0.033 | -0.026 ± 0.0057 | 0.008 ± 0.03 | 0.0015 ± 0.032 | -0.0025 ± 0.0092 | -0.0265 ± 0.057 | 0.009 ± 0.038 | 0.0085 ± 0.05 | 0.0125 ± 0.023 | 0.003 ± 0.0085 | 0.005 ± 0.0042 | -0.0005 ± 0.0092 | -0.0255 ± 0.0078 | -0.018 ± 0.014 | 0.0335 ± 0.047 | -0.009 ± 0.018 | -0.054 ± 0.047 | -0.0825 ± 0.066 | 0.004 ± 0.085 | -0.046 ± 0.072 |
| 3C:CD87/uPAR | -0.018 ± 0.0014 | 0.004 ± 0.017 | -0.027 ± 0.024 | 0.012 ± 0.04 | 0.016 ± 0.013 | 0.017 ± 0.0099 | -0.021 | -0.01 ± 0.042 | 0 ± 0.0085 | -0.0515 ± 0.063 | -0.032 ± 0.027 | -0.018 ± 0.04 | -0.022 ± 0.024 | -0.0085 ± 0.0078 | -0.019 ± 0.033 | -0.024 ± 0.023 | -0.013 ± 0.024 | -0.003 ± 0.011 | -0.148 ± 0.033 | -0.07 ± 0.03 |
| 4H:SRB | 0.0005 ± 0.026 | -0.002 ± 0.011 | -0.0605 ± 0.0078 | -0.008 ± 0.0042 | -0.008 ± 0.0014 | -0.0235 ± 0.0021 | -0.0125 ± 0.005 | -0.006 ± 0.0085 | -0.002 ± 0.014 | -0.0055 ± 0.0021 | -0.004 ± 0.0042 | -0.011 ± 0.017 | -0.0005 ± 0.023 | 0.001 ± 0.0085 | -0.0185 ± 0.011 | -0.0105 ± 0.0092 | -0.0195 ± 0.0035 | -0.0005 ± 0.025 | -0.0255 ± 0.00071 | -0.136 ± 0.0021 |
| BF4T:MMP-9 | 0.0045 ± 0.012 | -0.008 ± 0.011 | -0.0435 ± 0.023 | 0.0145 ± 0.019 | 0.0235 ± 0.019 | 0.031 ± 0.0014 | -0.023 ± 0.016 | -0.004 ± 0.011 | 0.014 ± 0.0085 | 0.015 ± 0.061 | 0.0075 ± 0.049 | 0.0205 ± 0.033 | -0.003 ± 0.021 | -0.0075 ± 0.022 | -0.014 ± 0.0085 | -0.025 ± 0.03 | -0.02 ± 0.0071 | -0.03 ± 0.0057 | -0.0225 ± 0.0021 | -0.146 ± 0.039 |
| 4H:VEGFR2 | 0.005 ± 0.018 | 0.017 ± 0.011 | 0.01 | -0.018 ± 0.014 | -0.009 ± 0.057 | 0.0045 ± 0.03 | 0.0035 ± 0.042 | -0.005 ± 0.013 | 0.012 ± 0.023 | -0.0045 ± 0.023 | 0.006 ± 0.017 | 0.006 ± 0.021 | -0.032 ± 0.014 | -0.027 | 0.007 ± 0.11 | -0.027 ± 0.023 | -0.0135 ± 0.033 | -0.008 ± 0.048 | -0.0915 ± 0.0078 | -0.172 ± 0.064 |
